Data: US20180064654A1, “Sheet Packs And Methods For Treating Skin” (ELC Management LLC, priority 2015, published 2018)

Experiments:
[1] = test system: per1 gene expression in normal human epidermal keratinocytes (NHEK); assay: per1 promoter luciferase reporter assay in NHEK; type: cell-based
Experimental: Perl gene expression in normal human epidermal keratinocytes (NHEK) donors was tested in control cells and cells exposed to ozone using the reporter assay. NHEK were plated at a concentration of 3×10^4 in a black walled, 96 well microtiter plate for 3 hours in EpiLife media. The cells were then transfected in supplement free media with a plasmid that contained luciferase as the reporter gene ligated upstream to a per1 promoter element. In addition, transfection was facilitated by addition of Plus and Lipfectamine reagents (Invitrogen, Carlsbad, Calif.). Transfection in supplement free media was carried out for an additional four hours. This “starves” the cells which in turn causes them to be synchronized in their circadian rhythms. After transfection, full media neat and containing ozone was added and incubated for 16 hours. Then a luciferase reagent, Glo-Bright (Promega Corporation, Madison, Wis.) was added and luminescence measures in an Lmax luminometer (Molecular Devices, Sunnyvale, Calif.).
The test was performed again, and in addition, a peptide with per1 gene activity was tested.
In both tests, NHEK were treated at the start of the test (0 hours) so that they were all synchronized with respect to their circadian rhythm, and expressing per1 at the same time. […]

[2] = test system: PER1 gene expression in skin cells; settings: "has been shown", no test described; cited from earlier work
[3] = test system: PER1 gene expression in skin cells; assay: PER1 gene expression in skin cells; type: cell-based

O=[O+][O-] [ozone]
per1 gene expression ([1]; 24 hours, single treatment, compared with untreated cells (FIG. 6)): lesser, and about equivalent, expression of PER1
per1 activity ([1]; ozone treated NHEK at 0, 6 and 12 hours, vs untreated cells (FIG. 5)): decrease in per1 activity

O=C(/C=C/c1ccc(O)c(O)c1)O[C@@H](C(=O)O)[C@@H](OC(=O)/C=C/c1ccc(O)c(O)c1)C(=O)O [cichoric acid]
activation of PER / PER1 [2]: suitable activator of PER and PER1

O=C(/C=C/c1ccc(O)c(O)c1)O[C@@H](C(=O)O)[C@@H](O)C(=O)O [caftaric acid]
PER1 gene expression [3]: does not increase PER1 gene expression
